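Cells were grown in 96-well plates and exposed to each compound for 48 hours at five concentrations; endpoints were interpolated linearly between bracketing concentrations, or set to the highest concentration if not reached. GI50: concentration for 50% inhibition of growth. TGI is the concentration that stops growth completely.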
Tests used:
Experiment in all cases: NCI-60 cell line screen, 48 h; in the data active = GI50 below about 0.43 µM; inactive = the rest
KM20L2 colon = tested on: KM20L2 colon
SNB-19 CNS = tested on: SNB-19 CNS
SF-268 CNS = tested on: SF-268 CNS
SR leukemia = tested on: SR leukemia
NCI-H226 lung = tested on: NCI-H226 lung
TK-10 renal = tested on: TK-10 renal
UO-31 renal = tested on: UO-31 renal
OVCAR-5 ovarian = tested on: OVCAR-5 ovarian
KM12 colon = tested on: KM12 colon
HOP-92 NSCLC = tested on: HOP-92 NSCLC
HCT-15 colon = tested on: HCT-15 colon
SF-295 CNS = tested on: SF-295 CNS
COLO 205 colon = tested on: COLO 205 colon
CCRF-CEM leukemia = tested on: CCRF-CEM leukemia
HCT-116 colon = tested on: HCT-116 colon
A549 NSCLC = tested on: A549 NSCLC
RPMI-8226 leukemia = tested on: RPMI-8226 leukemia
DLD-1 colon = tested on: DLD-1 colon
IGROV1 ovarian = tested on: IGROV1 ovarian
HL-60(TB) leukemia = tested on: HL-60(TB) leukemia
MALME-3M melanoma = tested on: MALME-3M melanoma
UACC-62 melanoma = tested on: UACC-62 melanoma
SN12C renal = tested on: SN12C renal
SK-OV-3 ovarian = tested on: SK-OV-3 ovarian
RXF 393 renal = tested on: RXF 393 renal
SF-539 CNS = tested on: SF-539 CNS
HOP-62 NSCLC = tested on: HOP-62 NSCLC
NCI-H522 lung = tested on: NCI-H522 lung
NCI-H460 lung = tested on: NCI-H460 lung
LXFL 529 NSCLC = tested on: LXFL 529 NSCLC
K-562 leukemia = tested on: K-562 leukemia
M14 melanoma = tested on: M14 melanoma
DMS 273 small cell lung = tested on: DMS 273 small cell lung
A498 renal = tested on: A498 renal
NCI-H23 lung = tested on: NCI-H23 lung
SW-620 colon = tested on: SW-620 colon
HT29 colon = tested on: HT29 colon
OVCAR-3 ovarian = tested on: OVCAR-3 ovarian
RXF-631 renal = tested on: RXF-631 renal
UACC-257 melanoma = tested on: UACC-257 melanoma
EKVX NSCLC = tested on: EKVX NSCLC
M19-MEL melanoma = tested on: M19-MEL melanoma
786-0 renal = tested on: 786-0 renal
DMS 114 small cell lung = tested on: DMS 114 small cell lung
SK-MEL-5 melanoma = tested on: SK-MEL-5 melanoma
HCC-2998 colon = tested on: HCC-2998 colon
CAKI-1 renal = tested on: CAKI-1 renal
MOLT-4 leukemia = tested on: MOLT-4 leukemia
LOX IMVI melanoma = tested on: LOX IMVI melanoma
SNB-78 CNS = tested on: SNB-78 CNS
U251 CNS = tested on: U251 CNS
OVCAR-8 ovarian = tested on: OVCAR-8 ovarian
OVCAR-4 ovarian = tested on: OVCAR-4 ovarian
XF 498 CNS = tested on: XF 498 CNS
SNB-75 CNS = tested on: SNB-75 CNS
ACHN renal = tested on: ACHN renal
SK-MEL-28 melanoma = tested on: SK-MEL-28 melanoma
SK-MEL-2 melanoma = tested on: SK-MEL-2 melanoma

N#CC(C#N)=C(C(C#N)C#N)C(C#N)C#N
> 100 µM: TGI (KM20L2 colon) | TGI (SNB-19 CNS) | TGI (SF-268 CNS) | TGI (SR leukemia) | TGI (NCI-H226 lung) | TGI (TK-10 renal) | TGI (UO-31 renal) | TGI (OVCAR-5 ovarian) | TGI (KM12 colon) | TGI (HOP-92 NSCLC) | TGI (HCT-15 colon) | TGI (SF-295 CNS) | TGI (COLO 205 colon) | TGI (CCRF-CEM leukemia) | TGI (HCT-116 colon) | TGI (A549 NSCLC) | TGI (RPMI-8226 leukemia) | TGI (DLD-1 colon) | TGI (IGROV1 ovarian) | TGI (HL-60(TB) leukemia) | TGI (MALME-3M melanoma) | TGI (UACC-62 melanoma) | TGI (SN12C renal) | TGI (SK-OV-3 ovarian) | TGI (RXF 393 renal) | TGI (SF-539 CNS) | TGI (HOP-62 NSCLC) | TGI (NCI-H522 lung) | TGI (NCI-H460 lung) | TGI (LXFL 529 NSCLC) | TGI (K-562 leukemia) | TGI (M14 melanoma) | TGI (DMS 273 small cell lung) | TGI (A498 renal) | TGI (NCI-H23 lung) | TGI (SW-620 colon) | TGI (HT29 colon) | TGI (OVCAR-3 ovarian) | TGI (RXF-631 renal) | TGI (UACC-257 melanoma) | TGI (EKVX NSCLC) | TGI (M19-MEL melanoma) | TGI (786-0 renal) | TGI (DMS 114 small cell lung) | TGI (SK-MEL-5 melanoma) | TGI (HCC-2998 colon) | TGI (CAKI-1 renal) | TGI (MOLT-4 leukemia) | TGI (LOX IMVI melanoma) | TGI (SNB-78 CNS) | TGI (U251 CNS) | TGI (OVCAR-8 ovarian) | TGI (OVCAR-4 ovarian) | TGI (XF 498 CNS) | TGI (SNB-75 CNS)

CCC[CH2][Sn]1([CH2]CCC)[O]CC(c2ccccn2)C[O]1
42.6 µM: TGI (OVCAR-5 ovarian)
33.3 µM: TGI (TK-10 renal)
29.5 µM: TGI (SW-620 colon) | TGI (RXF-631 renal)
30.5 µM: TGI (OVCAR-3 ovarian)
26.7 µM: TGI (DMS 114 small cell lung)
73.3 µM: TGI (KM20L2 colon)
11.8 µM: TGI (NCI-H522 lung)
38.3 µM: TGI (HT29 colon)
58 µM: TGI (SNB-75 CNS)
36.2 µM: TGI (EKVX NSCLC)
29.2 µM: TGI (M19-MEL melanoma)
36.7 µM: TGI (RXF 393 renal)
34.5 µM: TGI (RPMI-8226 leukemia)
inactive: GI50 (KM20L2 colon) 29.6 µM | GI50 (SNB-19 CNS) 22.1 µM | GI50 (SR leukemia) 12.4 µM | GI50 (NCI-H226 lung) 31 µM | GI50 (TK-10 renal) 18.9 µM | GI50 (UO-31 renal) 19.4 µM | GI50 (ACHN renal) 19.8 µM | GI50 (OVCAR-5 ovarian) 21.3 µM | GI50 (KM12 colon) 23.2 µM | GI50 (HOP-92 NSCLC) 18.2 µM | GI50 (HCT-15 colon) 18.2 µM | GI50 (SF-295 CNS) 20.3 µM | GI50 (COLO 205 colon) 17.5 µM | GI50 (SK-MEL-28 melanoma) 15.4 µM | GI50 (CCRF-CEM leukemia) 4.13 µM | GI50 (HCT-116 colon) 19.3 µM | GI50 (A549 NSCLC) 32.1 µM | GI50 (RPMI-8226 leukemia) 7.2 µM | GI50 (DLD-1 colon) 15.3 µM | GI50 (IGROV1 ovarian) 20.2 µM | GI50 (HL-60(TB) leukemia) 7.65 µM | GI50 (MALME-3M melanoma) 7.93 µM | GI50 (UACC-62 melanoma) 14.1 µM | GI50 (SN12C renal) 19.8 µM | GI50 (SK-OV-3 ovarian) 24.4 µM | GI50 (RXF 393 renal) 19.5 µM | GI50 (SF-539 CNS) 18.6 µM | GI50 (HOP-62 NSCLC) 23.3 µM | GI50 (NCI-H522 lung) 3.14 µM | GI50 (NCI-H460 lung) 33.5 µM | GI50 (LXFL 529 NSCLC) 7.96 µM | GI50 (K-562 leukemia) 14.6 µM | GI50 (M14 melanoma) 16.2 µM | GI50 (DMS 273 small cell lung) 15.7 µM | GI50 (A498 renal) 26.7 µM | GI50 (NCI-H23 lung) 17.1 µM | GI50 (SW-620 colon) 15.3 µM | GI50 (SK-MEL-2 melanoma) 14 µM | GI50 (HT29 colon) 20.5 µM | GI50 (OVCAR-3 ovarian) 16.7 µM | GI50 (RXF-631 renal) 15.4 µM | GI50 (UACC-257 melanoma) 17.3 µM | GI50 (EKVX NSCLC) 15.5 µM | GI50 (M19-MEL melanoma) 14.8 µM | GI50 (786-0 renal) 15.6 µM | GI50 (DMS 114 small cell lung) 10.2 µM | GI50 (SK-MEL-5 melanoma) 17 µM | GI50 (HCC-2998 colon) 19.4 µM | GI50 (CAKI-1 renal) 7.39 µM | GI50 (MOLT-4 leukemia) 17.2 µM | GI50 (LOX IMVI melanoma) 13.7 µM | GI50 (SNB-78 CNS) 19.9 µM | GI50 (U251 CNS) 15.9 µM | GI50 (OVCAR-8 ovarian) 17.9 µM | GI50 (OVCAR-4 ovarian) 20.7 µM | GI50 (XF 498 CNS) 17.9 µM | GI50 (SNB-75 CNS) 22.5 µM
34.4 µM: TGI (SK-MEL-5 melanoma)
20.5 µM: TGI (LXFL 529 NSCLC)
28.5 µM: TGI (SK-MEL-2 melanoma)
68.6 µM: TGI (HOP-62 NSCLC)
30.7 µM: TGI (M14 melanoma)
59.4 µM: TGI (KM12 colon)
37.9 µM: TGI (OVCAR-4 ovarian)
32.7 µM: TGI (XF 498 CNS)
27.7 µM: TGI (LOX IMVI melanoma)
38.1 µM: TGI (SF-295 CNS)
84.8 µM: TGI (SK-OV-3 ovarian)
41.7 µM: TGI (SR leukemia)
36.8 µM: TGI (OVCAR-8 ovarian)
29.4 µM: TGI (SK-MEL-28 melanoma) | TGI (HL-60(TB) leukemia)
45 µM: TGI (SNB-19 CNS)
34 µM: TGI (ACHN renal)
50.7 µM: TGI (A498 renal)
34.8 µM: TGI (CCRF-CEM leukemia)
33.7 µM: TGI (HCT-116 colon)
32.4 µM: TGI (UACC-257 melanoma)
29.8 µM: TGI (DLD-1 colon)
19.8 µM: TGI (MALME-3M melanoma)
22.1 µM: TGI (CAKI-1 renal)
34.3 µM: TGI (HCC-2998 colon)
35.3 µM: TGI (SN12C renal) | TGI (NCI-H23 lung)
65.8 µM: TGI (K-562 leukemia)
61.3 µM: TGI (SNB-78 CNS)
> 100 µM: TGI (NCI-H226 lung) | TGI (A549 NSCLC) | TGI (NCI-H460 lung)
29.3 µM: TGI (786-0 renal)
33.1 µM: TGI (SF-539 CNS)
35.5 µM: TGI (UO-31 renal)
28 µM: TGI (UACC-62 melanoma)
31.7 µM: TGI (COLO 205 colon)
29.6 µM: TGI (DMS 273 small cell lung) | TGI (U251 CNS)
36.6 µM: TGI (HOP-92 NSCLC) | TGI (IGROV1 ovarian)
32.6 µM: TGI (HCT-15 colon)
56 µM: TGI (MOLT-4 leukemia)
